Data reported in patent US20100267561A1, “HERBICIDAL PYRIDAZINONE DERIVATIVES” (priority 2007, published 2010).

Key:
Assay type in all cases: in vivo
[1] = system: corn (Zea mays); experiment: Test A pre-/postemergence plant response
Summary of the method: (§1)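 Ratings run 0–100 (100 = complete control), assigned visually against untreated controls roughly 10 days after treatment in a greenhouse. Compounds, formulated in non-phytotoxic solvent containing surfactant, were applied as a soil-directed preemergence spray and concurrently postemergence to one- to two-leaf plants 2–10 cm tall.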

[2] = system: giant foxtail (Setaria faberi); experiment: Test A pre-/postemergence plant response
Summary of the method: as §1

[3] = system: Italian ryegrass (Lolium multiflorum); experiment: Test B pre-/postemergence plant response
Excerpt: (§2) Seeds of plant species selected from blackgrass (Alopecurus myosuroides), downy bromegrass (Bromus tectorum), green foxtail (Setaria viridis), Italian ryegrass (Lolium multiflorum), wheat (Triticum aestivum), wild oat (Avena fatua), catchweed bedstraw (Galium aparine), bermudagrass (Cynodon dactylon), surinam grass (Brachiaria decumbens), cocklebur (Xanthium strumarium), corn (Zea mays), large crabgrass (Digitaria sanguinalis), woolly cupgrass (Eriochloa villosa), giant foxtail (Setaria faberii), goosegrass (Eleusine indica), johnsongrass (Sorghum halepense), kochia (Kochia scoparia), lambsquarters (Chenopodium album), morningglory (Ipomoea coccinea), eastern black (E.B.) nightshade (Solanum ptycanthum), yellow nutsedge (Cyperus esculentus), pigweed (Amaranthus retroflexus), common ragweed (Ambrosia elation), Russian thistle (Salsola iberica), soybean (Glycine max), common (oilseed) sunflower (Helianthus annuus), and velvetleaf (Abutilon theophrasti) were planted and treated preemergence with test chemicals formulated in a non-phytotoxic solvent mixture which included a surfactant.
(§3) At the same time, plants selected from these crop and weed species and also winter barley (Hordeum vulgare), canarygrass (Phalaris minor), chickweed (Stellaria media) and windgrass (Apera spica-venti) were treated with postemergence applications of some of the test chemicals formulated in the same manner. Plants ranged in height from 2 to 18 cm (1- to 4-leaf stage) for postemergence treatments.
(§4) Plant species in the flooded paddy test consisted of rice (Oryza sativa), umbrella sedge (Cyperus difformis), ducksalad (Heteranthera limosa) and barnyardgrass (Echinochloa crus-galli) grown to the 2-leaf stage for testing. At time of treatment, test pots were flooded to 3 cm above the soil surface, treated by application of test compounds directly to the paddy water, and then maintained at that water depth for the duration of the test. Treated plants and controls were maintained in a greenhouse for 13 to 15 days, after which time all species were compared to controls and visually evaluated. Plant response ratings, summarized in Table B, are based on a scale of 0 to 100 where 0 is no effect and 100 is complete control. A dash (-) response means no test result.

[4] = system: bermudagrass (Cynodon dactylon); experiment: Test B pre-/postemergence plant response
Excerpt: as §2, §3, §4

[5] = system: common (oilseed) sunflower (Helianthus annuus); experiment: Test B pre-/postemergence plant response; conditions: Preemergence
Excerpt: as §2, §3, §4

[6] = system: eastern black (E.B.) nightshade (Solanum ptycanthum); experiment: Test B pre-/postemergence plant response; conditions: Preemergence
Excerpt: as §2, §3, §4

[7] = system: johnsongrass (Sorghum halepense); experiment: Test B pre-/postemergence plant response
Excerpt: as §2, §3, §4

[8] = system: kochia (Kochia scoparia); experiment: Test B pre-/postemergence plant response
Excerpt: as §2, §3, §4

[9] = system: soybean (Glycine max); experiment: Test B pre-/postemergence plant response
Excerpt: as §2, §3, §4

[10] = system: velvetleaf (Abutilon theophrasti); experiment: Test B pre-/postemergence plant response
Excerpt: as §2, §3, §4

[11] = system: wheat (Triticum aestivum); experiment: Test B pre-/postemergence plant response
Excerpt: as §2, §3, §4

[12] = system: yellow nutsedge (Cyperus esculentus); experiment: Test B pre-/postemergence plant response
Excerpt: as §2, §3, §4

[13] = Postemergence, 125 g ai/ha, 0 to 100 scale, 0 no effect, 100 complete control
[14] = Postemergence, 500 g ai/ha, 0 to 100 scale, 0 no effect, 100 complete control
[15] = Preemergence, 125 g ai/ha, 0 to 100 scale (0 no effect, 100 complete control)
[16] = Preemergence, 500 g ai/ha, 0 to 100 scale (0 no effect, 100 complete control)
[17] = Postemergence, 31 g ai/ha, scale 0 to 100, 0 no effect, 100 complete control
[18] = Postemergence, 62 g ai/ha, scale 0 to 100
[19] = Postemergence, 125 g ai/ha, scale 0 to 100
[20] = Postemergence, 250 g ai/ha, scale 0 to 100
[21] = Preemergence, 31 g ai/ha, 0 to 100 scale, 0 no effect, 100 complete control
[22] = Preemergence, 62 g ai/ha, scale 0 to 100
[23] = Preemergence, 125 g ai/ha, scale 0 to 100
[24] = Preemergence, 250 g ai/ha, scale 0 to 100
[25] = 31 g ai/ha, 0 to 100 scale, 0 no effect, 100 complete control
[26] = Postemergence, 16 g ai/ha, scale 0 to 100
[27] = Preemergence, 16 g ai/ha, scale 0 to 100 (0 no effect, 100 complete control)
[28] = 16 g ai/ha, scale 0 to 100 (0 no effect, 100 complete control)

Cc1cc(-c2ccc(Br)cc2)nn1-c1c(OC(=O)C2CC2)cnn(C)c1=O [Compound 5]
Plant response rating, Corn [1, 13]: 100 | Plant response rating, Corn [1, 14]: 100 | Plant response rating, Corn [1, 15]: 80 | Plant response rating, Corn [1, 16]: 90 | Plant response rating, Foxtail, Giant [2, 13]: 100 | Plant response rating, Foxtail, Giant [2, 14]: 100 | Plant response rating, Foxtail, Giant [2, 15]: 100 | Plant response rating, Foxtail, Giant [2, 16]: 100 | Plant response rating, Ryegrass, Italian [3, 17]: 100 | Plant response rating, Ryegrass, Italian [3, 18]: 100 | Plant response rating, Ryegrass, Italian [3, 19]: 100 | Plant response rating, Ryegrass, Italian [3, 20]: 100 | Plant response rating, Ryegrass, Italian [3, 21]: 100 | Plant response rating, Ryegrass, Italian [3, 22]: 100 | Plant response rating, Ryegrass, Italian [3, 23]: 100 | Plant response rating, Ryegrass, Italian [3, 24]: 100 | Bermudagrass plant response rating ([4]; 250 g ai/ha, preemergence, 0-100 scale): 100 | Plant response rating, Bermudagrass [4, 17]: 100 | Plant response rating, Bermudagrass [4, 18]: 100 | Plant response rating, Bermudagrass [4, 19]: 100 | Plant response rating, Bermudagrass [4, 20]: 100 | Plant response rating, Bermudagrass [4, 21]: 98 | Plant response rating, Bermudagrass [4, 22]: 100 | Plant response rating, Bermudagrass [4, 23]: 100 | Plant response rating, Sunflower [5, 25]: 0 | Plant response rating, Sunflower ([5]; 62 g ai/ha, scale 0 to 100): 0 | Plant response rating, Sunflower ([5]; 125 g ai/ha, scale 0 to 100): 0 | Plant response rating, Sunflower ([5]; 250 g ai/ha, scale 0 to 100): 0 | Plant response rating, Nightshade, E. B. ([6]; 62 g ai/ha, scale 0 to 100): 0 | Plant response rating, Nightshade, E. B. ([6]; 250 g ai/ha, scale 0 to 100): 100 | Plant response rating, Johnsongrass [7, 17]: 0 | Plant response rating, Johnsongrass [7, 18]: 0 | Plant response rating, Johnsongrass [7, 19]: 85 | Plant response rating, Johnsongrass [7, 20]: 90 | Plant response rating, Johnsongrass [7, 21]: 0 | Plant response rating, Johnsongrass [7, 22]: 100 | Plant response rating, Johnsongrass [7, 23]: 100 | Plant response rating, Johnsongrass [7, 24]: 100 | Plant response rating, Kochia [8, 17]: 0 | Plant response rating, Kochia [8, 18]: 0 | Plant response rating, Kochia [8, 19]: 0 | Plant response rating, Kochia [8, 20]: 70 | Plant response rating, Kochia [8, 22]: 50 | Plant response rating, Kochia [8, 23]: 50 | Plant response rating, Kochia [8, 24]: 60 | Plant response rating, Soybean [9, 17]: 0 | Plant response rating, Soybean [9, 18]: 50 | Plant response rating, Soybean [9, 19]: 65 | Plant response rating, Soybean [9, 20]: 70 | Plant response rating, Soybean [9, 21]: 0 | Plant response rating, Soybean [9, 22]: 0 | Plant response rating, Soybean [9, 23]: 0 | Plant response rating, Velvetleaf [10, 17]: 0 | Plant response rating, Velvetleaf [10, 18]: 0 | Plant response rating, Velvetleaf [10, 19]: 0 | Plant response rating, Velvetleaf [10, 20]: 10 | Plant response rating, Velvetleaf [10, 21]: 0 | Plant response rating, Velvetleaf [10, 22]: 0 | Plant response rating, Velvetleaf [10, 23]: 0 | Plant response rating, Velvetleaf [10, 24]: 0 | Plant response rating, Wheat [11, 17]: 90 | Plant response rating, Wheat [11, 18]: 100 | Plant response rating, Wheat [11, 19]: 100 | Plant response rating, Wheat [11, 20]: 100 | Plant response rating, Wheat [11, 21]: 30 | Plant response rating, Wheat [11, 22]: 70 | Plant response rating, Wheat [11, 23]: 95 | Plant response rating, Wheat [11, 24]: 98 | Plant response rating, Nutsedge, Yellow [12, 17]: 0 | Plant response rating, Nutsedge, Yellow [12, 18]: 0 | Plant response rating, Nutsedge, Yellow [12, 19]: 60 | Plant response rating, Nutsedge, Yellow [12, 22]: 0 | Plant response rating, Nutsedge, Yellow [12, 23]: 0

CCc1cc(-c2ccc(C(F)(F)F)cc2)nn1-c1c(OC(=O)OC(C)C)cnn(C)c1=O [Compound 12]
Plant response rating, Corn [1, 13]: 90 | Plant response rating, Corn [1, 14]: 90 | Plant response rating, Corn [1, 15]: 80 | Plant response rating, Corn [1, 16]: 90 | Plant response rating, Foxtail, Giant [2, 13]: 80 | Plant response rating, Foxtail, Giant [2, 14]: 100 | Plant response rating, Foxtail, Giant [2, 15]: 100 | Plant response rating, Foxtail, Giant [2, 16]: 100 | Plant response rating, Ryegrass, Italian [3, 26]: 100 | Plant response rating, Ryegrass, Italian [3, 17]: 100 | Plant response rating, Ryegrass, Italian [3, 18]: 100 | Plant response rating, Ryegrass, Italian [3, 19]: 100 | Plant response rating, Ryegrass, Italian [3, 27]: 90 | Plant response rating, Ryegrass, Italian [3, 21]: 95 | Plant response rating, Ryegrass, Italian [3, 22]: 100 | Plant response rating, Ryegrass, Italian [3, 23]: 100 | Plant response rating, Bermudagrass [4, 26]: 100 | Plant response rating, Bermudagrass [4, 17]: 100 | Plant response rating, Bermudagrass [4, 18]: 100 | Plant response rating, Bermudagrass [4, 19]: 100 | Plant response rating, Bermudagrass [4, 27]: 100 | Plant response rating, Bermudagrass [4, 21]: 100 | Plant response rating, Bermudagrass [4, 22]: 100 | Plant response rating, Bermudagrass [4, 23]: 100 | Plant response rating, Sunflower [5, 28]: 0 | Plant response rating, Sunflower [5, 25]: 0 | Plant response rating, Sunflower ([5]; 62 g ai/ha, scale 0 to 100): 0 | Plant response rating, Sunflower ([5]; 125 g ai/ha, scale 0 to 100): 0 | Plant response rating, Nightshade, E. B. [6, 28]: 0 | Plant response rating, Nightshade, E. B. [6, 25]: 0 | Plant response rating, Nightshade, E. B. ([6]; 62 g ai/ha, scale 0 to 100): 50 | Plant response rating, Nightshade, E. B. ([6]; 125 g ai/ha, scale 0 to 100): 85 | Plant response rating, Johnsongrass [7, 26]: 100 | Plant response rating, Johnsongrass [7, 17]: 100 | Plant response rating, Johnsongrass [7, 18]: 100 | Plant response rating, Johnsongrass [7, 19]: 100 | Plant response rating, Johnsongrass [7, 27]: 70 | Plant response rating, Johnsongrass [7, 21]: 95 | Plant response rating, Johnsongrass [7, 22]: 100 | Plant response rating, Johnsongrass [7, 23]: 100 | Plant response rating, Kochia [8, 26]: 0 | Plant response rating, Kochia [8, 17]: 0 | Plant response rating, Kochia [8, 18]: 0 | Plant response rating, Kochia [8, 19]: 0 | Plant response rating, Kochia [8, 27]: 0 | Plant response rating, Kochia [8, 21]: 0 | Plant response rating, Kochia [8, 22]: 0 | Plant response rating, Kochia [8, 23]: 0 | Plant response rating, Soybean [9, 26]: 0 | Plant response rating, Soybean [9, 17]: 0 | Plant response rating, Soybean [9, 18]: 0 | Plant response rating, Soybean [9, 19]: 0 | Plant response rating, Soybean [9, 27]: 0 | Plant response rating, Soybean [9, 21]: 0 | Plant response rating, Soybean [9, 22]: 0 | Plant response rating, Soybean [9, 23]: 0 | Plant response rating, Velvetleaf [10, 26]: 0 | Plant response rating, Velvetleaf [10, 17]: 0 | Plant response rating, Velvetleaf [10, 18]: 0 | Plant response rating, Velvetleaf [10, 19]: 30 | Plant response rating, Velvetleaf [10, 27]: 0 | Plant response rating, Velvetleaf [10, 21]: 0 | Plant response rating, Velvetleaf [10, 22]: 0 | Plant response rating, Velvetleaf [10, 23]: 0 | Plant response rating, Wheat [11, 26]: 90 | Plant response rating, Wheat [11, 17]: 95 | Plant response rating, Wheat [11, 18]: 95 | Plant response rating, Wheat [11, 19]: 100 | Plant response rating, Wheat [11, 27]: 20 | Plant response rating, Wheat [11, 21]: 90 | Plant response rating, Wheat [11, 22]: 95 | Plant response rating, Wheat [11, 23]: 95 | Plant response rating, Nutsedge, Yellow [12, 26]: 0 | Plant response rating, Nutsedge, Yellow [12, 17]: 0 | Plant response rating, Nutsedge, Yellow [12, 18]: 0 | Plant response rating, Nutsedge, Yellow [12, 19]: 0 | Plant response rating, Nutsedge, Yellow [12, 27]: 0 | Plant response rating, Nutsedge, Yellow [12, 21]: 0 | Plant response rating, Nutsedge, Yellow [12, 22]: 0 | Plant response rating, Nutsedge, Yellow [12, 23]: 0
